Patent publication US20230293599A1, “BACTERIAL COMPOSITIONS WITH ANTI-INFLAMMATORY ACTIVITY” (Universiteit Gent, priority 2020, published 2023)
Where two headings read alike, the source gives them in different places. Residues, ends and D or L forms follow the SMILES beside them.

What was measured:
S. aureus = assay type: cell-based, Staphylococcus aureus
Summary of the method: (§1)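 Growth on 190 carbon sources in Biolog PM1 and PM2 panels, inoculated per manufacturer's protocol. Growth curves followed for 35 hours by absorbance at 590 nm.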

R. mucilaginosa = assay: Biolog Phenotype Microarray PM1-2 growth on carbon sources; assay type: cell-based, Rothia mucilaginosa
Method: (§2) Using Phenotype Microarray (PM) panels (Biolog), the influence of 190 carbon sources on the growth of the potential probiotic species R. mucilaginosa, R. dentocariosa, R. gilardii, G. haemolysans, and common respiratory pathogens P. aeruginosa, and S. aureus was determined. PM1 and PM2 panels (Biolog) were inoculated according to the manufacturer's instructions. Growth curves were generated for 35 hours by measuring the absorbance at 590 nm using an EnVision (Perkin Elmer) plate reader.

R. dentocariosa = assay: as above; assay type: cell-based, Rothia dentocariosa
Method: as §2

G. haemolysans = assay: as above; assay type: cell-based, Gemella haemolysans
Method: as §2

P. aeruginosa = assay: as above; assay type: cell-based, Pseudomonas aeruginosa; conditions: for growth of P. aeruginosa on the carbon source (in words): AUC lower than 50 = not supporting growth
Summary of the method: as §1

R. gilardii = assay: as above; assay type: cell-based, Roseomonas gilardii
Method: as §2

NF-κB pathway = assay: NF-κB-luciferase reporter 3-D A549 cells stimulated with LPS (Example 2); assay type: cell-based, human; conditions: acetate at 28.3 mM and 18.0 mM, 4-hour incubation (FIG. 10)
Method: 3-D cells of the human adenocarcinoma alveolar lung epithelial cell line A549 transfected with an NF-κB-luciferase reporter (BPS Bioscience, San Diego, CA) were prepared as described previously for A549 cells (Crabbé et al., 2016; Barrila et al., 2010; Harris et al. 2007; Chen et a., 2019). Briefly, a monolayer of NF-κB-A549 cells was grown in T75 cell culture flasks containing GTSF-2 medium (HyClone, Logan, UT) supplemented with 1.5 g/L sodium bicarbonate (Sigma-Aldrich), 10% fetal bovine serum (FBS, Life technologies), 2.5 mg/L insulin transferring sodium selenite (Lonza) and 1% penicillin-streptomycin (pen-strep, Life Technologies) at 37° C. under 5% CO2. At confluence, the cells were seeded in the Rotating Wall Vessel (RWV) bioreactor with type-1 collagen coated dextran beads at a cell to bead ratio of 2:1 and were cultured for 11 to 14 days. […]
The NF-κB pathway was activated in 3-D NF-κB -A549 cells by 4 hours stimulation with LPS (100 μg/mL) in the presence or absence (positive control) of each of the isolates (Table 1) at varying multiplicity of infection (MOI) starting from an MOI of 100 to an MOI of 1.56 by performing 1:2 serial dilutions. […] After 4 hours incubation, 3-D epithelial cells containing the NF-κB -luciferase reporter were transferred to a black 96-well plate for analysis of luminescence. […] Luminescence was measured by an EnVision (Perkin Elmer) luminometer.

[1] = 35 hours, absorbance 590 nm, n = 1, cells without values AUC < 50
[2] = AUC lower than 50 = not supporting growth

Row | Molecule | AUC of growth curve, S. aureus (S. aureus) | AUC of growth curve, R. mucilaginosa (R. mucilaginosa; [1]) | AUC of growth curve, R. dentocariosa (R. dentocariosa; [1]) | AUC of growth curve, G. haemolysans (G. haemolysans; [1]) | AUC of growth curve, P. aeruginosa (P. aeruginosa; [1]) | AUC of growth curve, R. gilardii (R. gilardii; [1]) | further results
1 | O=C[C@H](O)[C@H](O)[C@H](O)CO [D-Ribose] | 769.0 | 371.4 | 431.1 | 627.5 | 1450.3 | 718.5 | 
2 | O=C[C@H](O)[C@@H](O)[C@@H](O)CO [L-Arabinose] | 356.7 | 195.3 | 314.8 | 120.4 | 1269.0 | 804.7 | 
3 | OC[C@H]1O[C@H](O)[C@H](O)[C@@H](O)[C@@H]1O [α-D-Glucose] | 966.1 | 1068.2 | 1288.0 | 1140.8 | 830.2 | 115.5 | 
4 | O=C[C@@H](O)[C@H](O)[C@H](O)CO [D-Arabinose] | 705.0 |  | 305.6 | 88.1 | 763.4 | 356.3 | 
5 | O=C[C@H](O)[C@H](O)[C@@H](O)CO [L-Lyxose] | 308.4 | 377.5 | 474.8 | 430.7 | 1393.5 | 765.9 | 
6 | Nc1ncnc2c1ncn2[C@@H]1O[C@H](CO)[C@@H](O)[C@H]1O [Adenosine] | 472.6 |  |  | 65.6 | 398.1 |  | 
7 | N[C@H]1C(O)O[C@H](CO)[C@@H](O)[C@@H]1O (stereo partly drawn) [D-Glucosamine] | 884.6 |  | 200.6 | 618.4 | 840.0 | 196.5 | 
8 | NC(=O)[C@@H](O)[C@@H](O)[C@H](O)[C@@H](O)C=O [Glucuronamide] | 62.8 | 84.9 | 124.2 | 97.6 | 820.8 | 53.3 | 
9 | C[C@H](O)[C@@H](O)[C@@H](O)[C@H](O)C=O [L-Fucose] | 277.6 | 155.6 | 478.0 | 95.6 | 701.4 | 86.6 | 
10 | CC(=O)N[C@H]1C(O)O[C@H](CO)[C@@H](O)[C@@H]1O (stereo partly drawn) [N-Acetyl-D-Glucosamine] | 643.5 |  |  | 711.9 |  |  | growth of G. haemolysans on the carbon source (in words) (G. haemolysans; [2]): supported growth; growth of P. aeruginosa on the carbon source (in words) (P. aeruginosa): did not support growth
11 | C[C@H](O)[C@H](O)[C@@H](O)[C@@H](O)C=O [L-Rhamnose] | 423.5 | 197.8 | 149.9 | 104.6 | 265.3 | 178.6 | 
12 | CC(=O)C(=O)O [Pyruvic Acid] | 763.0 | 205.5 | 343.3 | 552.9 | 877.9 | 215.7 | 
13 | O=C(CO)[C@@H](O)[C@H](O)[C@@H](O)C(=O)O [5-Keto-D-Gluconic Acid] | 432.1 |  |  |  |  |  | AUC of growth curve, R. dentocariosa (R. dentocariosa): 277.0; AUC of growth curve, G. haemolysans (G. haemolysans): 122.8; AUC of growth curve, P. aeruginosa (P. aeruginosa): 1312.5; AUC of growth curve, R. gilardii (R. gilardii): 423.9
14 | O=C[C@@H](O)[C@@H](O)[C@H](O)[C@H](O)CO [D-Mannose] | 729.5 | 1017.6 | 106.1 | 218.6 | 495.0 |  | 
15 | COC(=O)C(C)=O [Methyl Pyruvate] | 611.5 |  | 74.1 | 870.9 | 818.7 |  | 
16 | C/C=C/C=C/C(=O)O [Sorbic Acid] | 495.2 |  | 82.4 | 90.3 |  | 56.2 | 
17 | O=C(CO)[C@@H](O)[C@H](O)[C@H](O)COP(=O)(O)O [D-Fructose-6-Phosphate] | 437.8 | 127.5 | 87.1 | 134.2 | 783.8 |  | 
18 | Pectin |  | 199.5 | 683.6 | 68.6 | 334.5 | 141.7 | AUC of growth curve, S. aureus (S. aureus; [1]): 996.1
19 | O=C[C@H](O)[C@@H](O)[C@H](O)CO [D-Xylose] | 92.4 | 157.4 | 257.9 | 581.3 | 1218.3 | 310.4 | 
20 | O=CC[C@H](O)[C@H](O)CO [2-Deoxy-D-Ribose] | 580.2 |  | 376.6 | 180.3 | 529.9 | 366.7 | 
21 | O=C(CO)[C@@H](O)[C@H](O)[C@H](O)CO [D-Fructose] | 992.9 |  |  |  |  |  | AUC of growth curve, R. mucilaginosa (R. mucilaginosa): 1111.2; AUC of growth curve, R. dentocariosa (R. dentocariosa): 109.5; AUC of growth curve, G. haemolysans (G. haemolysans): 88.8; AUC of growth curve, P. aeruginosa (P. aeruginosa): 413.3; AUC of growth curve, R. gilardii (R. gilardii): 315.8
22 | O=C(O)C[C@H](O)C(=O)O [L-Malic Acid] | 648.8 |  |  | 73.9 | 808.2 | 202.5 | 
23 | Dextrin |  |  | 135.6 | 66.1 |  |  | AUC of growth curve, S. aureus (S. aureus; [1]): 908.1; growth of R. dentocariosa on the carbon source (in words) (R. dentocariosa; [2]): stimulated only the growth; growth of P. aeruginosa on the carbon source (in words) (P. aeruginosa): did not support growth
24 | C[C@H](N)C(=O)NCC(=O)O [L-Alanyl-Glycine] (H-Ala-Gly-OH) | 809.1 |  |  |  |  |  | AUC of growth curve, G. haemolysans (G. haemolysans): 114.6; AUC of growth curve, P. aeruginosa (P. aeruginosa): 180.2; AUC of growth curve, R. gilardii (R. gilardii): 76.2
25 | CC(=O)O [acetate] |  |  |  |  |  |  | effect on LPS-stimulated NF-κB pathway activation (NF-κB pathway): did not reduce
